The source of these data is US12667584B2, “Adenosine analog and its use in regulating the circadian clock” (NATIONAL INSTITUTE OF BIOLOGICAL SCIENCES, BEIJING, priority 2017, dated 2026).

The target in assay [1] is T1, Ruvbl2, Bmal1, Cry1 and CDK9 interaction (Homo sapiens, UniProt Q9Y230).
T1 construct: expressed in transfected cells; host or cells: HEK293T
Nature of the assay: Co-immunoprecipitation in transfected HEK293T cells. It counts as cell-based. The following applies: 100 μM. As for the experimental part:
Biotinylated Compounds Pull-down, SPR analysis and Immunoprecipitation: The interaction between biotinylated compounds and their target proteins were proceeded as follow. Every 10^8 unsynchronized U2OS cells were collected, homogenized into 2 ml lysis buffer (25 mM MOPS pH7.2, 15 mM EGTA, 15 mM MgCl2, 1 mM DTT, 60 mM β-glycerophosphate, 1 mM Na3VO4, 1 mM NaF, 1 mM phenyl phosphate, Complete Protease Inhibitor Cocktail), and sonicated 6 times for 30 s at 4° C. with a Diagenode bioruptor. After sonication, NP-40 (final 0.5%) was added, incubated 15 min on ice, centrifuged at full speed for 20 min at 4° C. The resultant supernatant was firstly incubated with Pentostatin (final concentration at 5 μg/ml) for 2 h at 4° C. with rotation, and then split into 4 groups. 200 pmol cordycepin, 200 pmol DRB, and DMSO (2 groups, final 0.1%) was added respectively and further incubated for 1 h. […] The eluted protein was analyzed with western blot. The binding affinity of cordycepin against the RUVBL2 protein was measured via SPR technology using a Biacore T200 instrument (GE Healthcare) at room temperature. […] The binding kinetics and binding affinity of cordycepin against the RUVBL2 protein were determined with BIA evaluation software (GE healthcare). […] Immunoprecipitated protein complex was then washed 3 times with IP lysis buffer, boiled and analyzed with western blot. […]

Another assay has as its system Per2:luc U2OS cells. Description: Real-time monitoring of circadian oscillation in lumicycle, Per2:luc U2OS cells. Format: cell-based, human. As for the experimental part: Cell culture, drug treatment and Real-Time Monitoring of Circadian Oscillations: Per2-Luc reporter U2OS cells (D15) and Bmal1-Luc reporter U2OS cells (C26) cells were kept in DMEM medium (Gibco), supplemented with 10% FBS (Gibco) and 1% penicillin streptomycin mixture (Gibco). For Circadian Oscillation monitored with lumicycle (Actimetrics), cells were seeded at the density of 10^6 per 3.5 cm dish (Z688851-30EA). The medium was changed into XM medium (PH7.2, 10 mM HEPES, 350 mg/I bicarbonate, 1×B27, 100 IU/ml penicillin, 100 μg/ml streptomycin, 10 μg/ml gentamycin, and 100 μM d-Luciferin) 2 days after cell seeding. 3.5 cm dish was then sealed with high-vacuum grease (Dow Corning) and microscope cover glass, and transferred into lumicycle which was placed in an incubator (37° C.). For Drug treatment, 3.5 cm dish was taken out from lumicycle quickly at indicated time. After chemical was added into the medium, the dish was sealed again and put back into lumicycle. For Circadian Oscillation monitored with Tecan (Perkinelmer), cells were seeded at the density of […] per well for 384-well plate (CLS3610-48EA). 2 days later, the medium was changed into premixed XM medium with different chemicals with or without pentostatin (5 μg/ml). The plate was then sealing with sealing film (Sangon Biotech) and put into Tecan. Data from cells were collected in the Tecan luminometer at 37° C. for 5˜7 days.
The inventors conducted a chemical screen using the human osteosarcoma U2OS cell line so as to discover small molecules that modify the phase of the intracellular clock in mammals. In the primary screen, the inventors used two reporter lines of U2OS harboring a luciferase gene under control of either Per2 or Bmal1 promoter (named Per2-dLuc or Bmal1-dLuc cells), and set the threshold for at least 6 h phase-changes with no apparent amplitude-reduction in both cell lines. […] An institutional pilot chemical library consisting of approximately 10,000 small molecules was applied in this study. […] The inventors set to allow a free-run of the clock before administration of the compound over the course in order to eliminate the possibility that this phase-changing phenomenon was due to a combinative phenotype of medium-change plus the compound effect.
Circadian clock is a transcriptional based feedback loop, however different clock genes contain different cis-element and may show different response to the same stimulation. […] Since the close similar structure with adenosine and potential function of inhibiting transcription by preventing mRNA elongation, we tested whether adenosine and other deoxynucleoside could shift circadian phase. […] Therefore we further tested whether cordycepin utilize adenosine transporter to enter cell or utilize adenosine deaminase to degrade.
One prominent character of zeitgeiber is phase dependent function. Therefore, we further tested whether cordycepin also has the character.

T1 sequence (Q9Y230 whole entry): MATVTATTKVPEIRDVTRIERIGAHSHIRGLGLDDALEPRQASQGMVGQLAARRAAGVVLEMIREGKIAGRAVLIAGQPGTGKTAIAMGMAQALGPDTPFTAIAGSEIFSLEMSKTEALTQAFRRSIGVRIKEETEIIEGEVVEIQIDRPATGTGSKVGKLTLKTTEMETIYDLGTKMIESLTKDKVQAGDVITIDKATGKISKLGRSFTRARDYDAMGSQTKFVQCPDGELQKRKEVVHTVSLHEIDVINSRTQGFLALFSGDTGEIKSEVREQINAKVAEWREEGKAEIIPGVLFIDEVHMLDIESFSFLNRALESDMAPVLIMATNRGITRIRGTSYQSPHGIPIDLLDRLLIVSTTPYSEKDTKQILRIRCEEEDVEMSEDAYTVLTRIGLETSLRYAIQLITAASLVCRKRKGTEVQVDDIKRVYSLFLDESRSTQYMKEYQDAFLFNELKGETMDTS

On to `Nc1ncnc2c1ncn2[C@@H]1O[C@H](CO)C[C@H]1O` [Cordycepin, 3′-deoxy-adenosine], for which the “interaction between Ruvbl2 and Bmal1, or Cry1 with Bmal1” value in assay [1] is listed as “can be disassociated”. In assay [1], the “interaction between Ruvbl2 with Cry1 or CDK9” value is on record as “is not disassociated”. The results for the phase shift in the assay on Per2:luc U2OS cells (100 μM applied at CT10) and in the assay on Per2:luc U2OS cells (100 μM applied at CT 20) were 12 h and approximately 0 h, respectively. In addition, the Per2-dLuc phase shift was found to be 12 h in the assay on Per2:luc U2OS cells (applied at Per2 peak, 100 μM) and 0 h in the assay on Per2:luc U2OS cells (applied at Per2 trough). For the same compound, in the assay on Per2:luc U2OS cells (applied at Per2 trough), the “amplitude of Per2-dLuc” value was “increase the amplitude”.
